Entries after “also recorded” stand apart in the source; their conditions may differ.
Key:
Format in all cases: cell-based, human
[1] = tested on: CD34+ cells from mobilized PB; assay: Long term 10-day ex vivo culture of CD34+ cells from mobilized PB
Method: The following biological assays were used to assess the effect of the compounds of the invention on hematopoietic stem cell expansion. Culture medium: The culture medium used consisted of serum-free medium supplemented with the following recombinant cytokines: interleukin-6, thrombopoietin, Flt-3 ligand, and stem cell factor, each at a final concentration of 100 ng/ml, in the presence of vehicle (DMSO), positive control (SR1), or compound of the invention or a combination of compounds. Cell Culture: CD34+ cell purity of initial harvests was higher than 90%, as determined by flow cytometry. The CD34+CD45RA− subpopulation reached purity levels higher than 70%. Cells were plated at 40,000 cells/ml and incubated for 7 to 12-days at 37° C. in 5% CO2. For long term cultures, 200,000 CD34+ cells/ml from mobilized PB were plated with serum free media supplemented with interleukin-6, thrombopoietin, Flt3 ligand, and stem cell factor, each at a final concentration of 100 ng/ml, in the presence of vehicle (DMSO), positive control, or a compound of the invention at 500 nM. After a 10-day ex vivo culture Compound 1 (Table 1) promoted more than 7-fold expansion of MNCs, more than 5-fold increase in CD34+ cells over input values (day 0), and almost 4-fold increase over the values determined for vehicle. After 10 days of ex vivo culture, Compound 1-treated cells retained a high level of CD34 expression (65.8±5.5%) compared to cells cultured with vehicle (DMSO) (22.8±0.9%). Moreover, only Compound 1-treated cells retained the highest expression of CD34+CD45RA− population (24.8±0.9%) compared to that of vehicle (4.7±0.4%). The numbers of CD34+CD45RA− cultured with Compound 1 increased by almost 3-fold compared to that of vehicle and 7-fold more than that of input. Finally, the compounds of the invention were assayed in a dose-response format (concentrations ranging from 1 nM to 5000 nM) to determine the effective concentration that produced a 50% increase in the number of CD34+CD45RA− cells compared to vehicle condition.

[2] = tested on: CD34+ mobilized peripheral blood cells; assay: FACS analysis of differentiation of CD34+ mobilized peripheral blood cells (FIG. 4A)
Source text: FIG. 4A illustrates the impact of Compound 1 on mobilized peripheral blood cell differentiation. Following a 7 day expansion, a relatively pure (>85% CD34^+) population of mobilized peripheral blood was exposed to control the (DMSO) or Compound 1 or SR1 or Compound 1+SR1.

[3] = tested on: CD34+ mobilized peripheral blood (mPB) cells; assay: Ex vivo expansion of mobilized peripheral blood-derived CD34+ and CD34+CD45RA− cells (FIG. 5A)
Source text: FIG. 5: A) Compound 1 expands mobilized peripheral blood-derived CD34+ and CD34+CD45RA− cell populations ex vivo. […] This observation was enhanced with the co-treatment with SR1.
[…]. The level of expansion is the same whether cultures are initiated with Compound 1, SR1, Compound 1+SR1, or control DMSO. […] […].

[4] = tested on: CD34+ mPB cells; assay: Colony-forming units in culture (CFU-C) assay in methylcellulose; settings: 1000 CD34+ mPB cells treated for 10 days
Method: The ex vivo functionality of expanded cells was tested using the conventional colony-forming units in culture (CFU-C) assay. Untreated cells or cells incubated with DMSO, positive control or a compound of the invention were plated in methylcellulose medium in conventional conditions. As an example, Compound 1 (Table 1, Example 1) expands the number of multipotent hematopoietic progenitors.

SMILES: COC(=O)c1ccc2c(c1)[nH]c1ncnc(NCCCN3CCCCC3)c12 [Compound 1, Methyl 4-((3-(piperidin-1-yl)propyl)amino)-9H-pyrimido[4,5-b]indole-7-carboxylate]
- expansion of MNCs ([1]; 10-day ex vivo culture, 500 nM): more than 7 fold
- increase in CD34+ cells over input values (day 0) ([1]; 10-day ex vivo culture, 500 nM): more than 5 fold
- increase in CD34+ cells over the values determined for vehicle ([1]; 10-day ex vivo culture, 500 nM): ~4 fold
- numbers of CD34+CD45RA− compared to input ([1]; 10-day ex vivo culture, 500 nM): 7 fold
- numbers of CD34+CD45RA− compared to vehicle ([1]; 10-day ex vivo culture, 500 nM): ~3 fold
- expression of CD34+CD45RA− population ([1]; after 10 days of ex vivo culture, vehicle 4.7±0.4%): 24.8±0.9%
- level of CD34 expression ([1]; after 10 days of ex vivo culture, vehicle 22.8±0.9%): 65.8±5.5%
- loss of CD34 cell surface expression ([2]; 7 day expansion, optimal levels, vs DMSO control): partly abrogated
- differentiation of CD34+ mobilized peripheral blood cells ([2]; FACS / cytological analysis): prevent cell differentiation; also recorded: reduces differentiation
- CD34+ cell population compared to DMSO treated control cells ([2]; FACS analysis): able to expand CD34+ cell population
- CD34+CD45RA− cells vs SR1 or control cultures ([2]; FIG. 4A, 4B bottom panels): more numerous
- expansion of CD34+CD45RA− cell subpopulation ([3]; 12-days culture): about ten fold
- total cell count increase above the input ([3]; 12-days culture): about 20 fold
- CD34+ population vs DMSO ([3]; FIG. 5A): more than twice
- CD34+CD45RA− population vs DMSO ([3]; FIG. 5A): more than three times
- total cell count vs DMSO ([3]; FIG. 5A): the same
- increase in multilineage GEMM colonies compared to control cells [4]: 10 fold
- increase in multilineage GEMM colonies over input cells [4]: 5 fold
